Measured values: patent US20020183518A1, “Modulators of proteins with phosphotyrosine recognition units” (ONTOGEN CORPORATION, priority 1995, published 2002)

Assays:
Format in all cases: biochemical
[1] = molecular target: T1, PTP-1B (Homo sapiens, UniProt P18031); assay: In vitro PTPase inhibition assay (pNPP, colorimetric), PTP-1B; settings: Table 8; 1 μM compound
T1 construct: known to encode a 321 amino acid fragment containing the PTP-1B catalytic domain and having PTPase activity; made in house; host or cells: E. coli DH5α, plasmid pGEX-3X-PTP-1B
T1 sequence (P18031 3-277 limits assumed): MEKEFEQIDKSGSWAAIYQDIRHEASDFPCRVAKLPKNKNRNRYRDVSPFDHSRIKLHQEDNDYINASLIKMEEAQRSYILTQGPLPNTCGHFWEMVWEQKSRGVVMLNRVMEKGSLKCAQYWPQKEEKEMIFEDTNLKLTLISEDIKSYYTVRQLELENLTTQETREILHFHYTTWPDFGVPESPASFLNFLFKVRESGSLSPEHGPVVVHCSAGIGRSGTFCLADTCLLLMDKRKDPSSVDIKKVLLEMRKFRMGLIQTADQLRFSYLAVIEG

[2] = molecular target: PTPα (Homo sapiens, UniProt P18433); assay: In vitro PTPase inhibition assay (pNPP, colorimetric), PTPα; settings: Table 8; 100 μM compound
PTPα, sequence (P18433 20-802): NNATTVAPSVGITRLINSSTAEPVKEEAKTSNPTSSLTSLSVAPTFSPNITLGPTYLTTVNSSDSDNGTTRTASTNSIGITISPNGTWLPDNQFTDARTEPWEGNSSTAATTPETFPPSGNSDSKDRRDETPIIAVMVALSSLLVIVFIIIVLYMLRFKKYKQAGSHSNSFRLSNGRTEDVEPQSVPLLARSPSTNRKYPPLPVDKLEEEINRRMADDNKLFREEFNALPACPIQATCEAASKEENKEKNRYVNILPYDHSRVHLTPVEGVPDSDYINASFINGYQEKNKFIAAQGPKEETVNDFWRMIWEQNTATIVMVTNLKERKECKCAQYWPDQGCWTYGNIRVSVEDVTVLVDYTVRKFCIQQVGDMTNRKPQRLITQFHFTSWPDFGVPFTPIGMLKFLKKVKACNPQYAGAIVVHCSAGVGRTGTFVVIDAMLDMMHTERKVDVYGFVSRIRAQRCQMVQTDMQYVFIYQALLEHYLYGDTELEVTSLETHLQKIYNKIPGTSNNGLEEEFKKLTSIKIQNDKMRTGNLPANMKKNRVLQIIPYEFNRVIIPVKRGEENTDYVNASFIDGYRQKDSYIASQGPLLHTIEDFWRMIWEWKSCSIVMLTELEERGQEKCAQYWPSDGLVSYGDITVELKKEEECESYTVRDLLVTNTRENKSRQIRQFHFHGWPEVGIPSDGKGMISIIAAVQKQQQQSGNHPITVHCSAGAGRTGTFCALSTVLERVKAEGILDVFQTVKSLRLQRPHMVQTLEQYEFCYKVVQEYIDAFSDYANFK
Experimental: (§1) The ability of the compounds of the present invention, such as the cinnamic 4 acid derivative compounds of Example 2, to inhibit the PTPase activity of PTP-1B, CD45, PTP-1C, and PTPα was determined using modifications of the PTP-1B and CD45 activity assays described in Examples 3 and 4.
(§2) First, 0.001 mmol of the cinnamic acid derivative (or other PTPase inhibitor compound) was dissolved in 100 ul of DMSO to create a 10 mM stock solution. The 10 mM stock solution was used to add varying concentrations (100 uM, 133 uM, 10 uM, 3 uM, 1 uM, 0.3 uM, 0.1 uM, 0.03 uM, 0.01 uM or 0.003 uM) of the inhibitor compound to a series of otherwise identical PTPase activity assay reactions (100 ul final volume in microtiter wells). Thus, each 100 ul reaction contained 10 ul PTPase enzyme stock solution (final phosphatase concentration of approximately 20 ng/well), 70 ul activity assay buffer, 10 ul pNPP stock solution (final pNPP concentration of 0.9 mM for PTP-1B assay, 0.93 mM for CD45 assay, 0.5 mM for PTPα assay, and 8 mM for PTP-1C assay), and 10 ul of the diluted inhibitor compound in DMSO. Assay buffers contained: for CD45 and PTP-1B assays, 100 mM sodium acetate at pH 6.0, 1 mM EDTA, 0.1% Triton X-100, and 15 mM bME; for PTP-1C assays, 100 mM sodium acetate at pH 5.5, 0.1% BSA, and 15 mM bME; for PTPα assays, 100 mM sodium acetate at pH 5.25, 0.1% BSA, and 15 mM bME. Purified phosphatase was added to the reaction mixtures to begin the reactions; the reactions were incubated at 37° C. for 60 min. (for PTP-1B and CD45 assays) or at 27° C. for 60 min. (for PTP-1C and PTPα assays), stopped, and colorimetrically analyzed as described above. As positive and negative controls, reactions were performed containing 10 ul DMSO with no inhibitor compound or containing the known PTPase inhibitors vanadate (final concentration 0.5 mM; for PTP-1B and CD45 assays) or ammonium molybdate (final concentration 1 mM; for PTP-1C and PTPα assays) substituted for the inhibitor compound of the invention.
(§3) The concentration of inhibitor compound required to inhibit 50% of the PTPase activity (IC50) was determined as follows. First, absorbance readings from the negative control reactions were treated as a baseline and subtracted from the absorbance readings of the experimental reactions. Then, for each reaction, a percent inhibition was calculated using the following formula: […]
(§4) The ability of the compounds of the present invention, such as the cinnamic acid derivative compounds of Example 2, to inhibit the PTPase activity of PTP-1B, CD45, PTP-1C, and PTPα was determined using modifications of the PTP-1B and CD45 activity assays described in Examples 3 and 4.
as §2, with “uM, 33” for “uM, 133”, “EDTA, 0. 1%” for “EDTA, 0.1%”, “at 27 C” for “at 27° C.”, “min.” for “min. (for PTP-1C and PTPα assays), stopped, and colorimetrically analyzed as described above. As positive and negative controls, reactions were performed containing 10 ul DMSO with no inhibitor compound or containing the known PTPase inhibitors vanadate (final concentration 0.5 mM; for PTP-1B and CD45 assays) or ammonium molybdate (final concentration 1 mM; for PTP-1C and PTPα assays) substituted for the inhibitor compound of the invention.”

[3] = molecular target: PTP-1C (Homo sapiens, UniProt P29350); assay: In vitro PTPase inhibition assay (pNPP, colorimetric), PTP-1C; settings: Table 8; 100 μM compound
PTP-1C, sequence (P29350 whole entry, species assumed): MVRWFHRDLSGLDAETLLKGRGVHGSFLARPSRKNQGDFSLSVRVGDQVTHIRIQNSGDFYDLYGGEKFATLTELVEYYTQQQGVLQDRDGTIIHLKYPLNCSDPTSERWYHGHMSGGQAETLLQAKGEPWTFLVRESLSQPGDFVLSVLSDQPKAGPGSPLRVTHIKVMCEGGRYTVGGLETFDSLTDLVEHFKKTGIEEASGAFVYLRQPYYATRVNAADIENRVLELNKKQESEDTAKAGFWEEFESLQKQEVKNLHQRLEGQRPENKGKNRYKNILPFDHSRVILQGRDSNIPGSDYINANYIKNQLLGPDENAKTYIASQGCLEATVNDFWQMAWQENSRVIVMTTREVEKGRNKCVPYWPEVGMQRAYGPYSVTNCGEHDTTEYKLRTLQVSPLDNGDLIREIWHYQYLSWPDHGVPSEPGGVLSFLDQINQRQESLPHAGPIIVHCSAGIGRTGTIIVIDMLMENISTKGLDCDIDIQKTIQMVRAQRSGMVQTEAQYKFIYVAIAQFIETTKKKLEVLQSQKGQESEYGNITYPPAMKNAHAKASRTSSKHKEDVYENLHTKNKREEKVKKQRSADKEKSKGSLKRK
Experimental: as §1, §2, §3, §4
as §2, with “uM, 33” for “uM, 133”, “EDTA, 0. 1%” for “EDTA, 0.1%”, “at 27 C” for “at 27° C.”, “min.” for “min. (for PTP-1C and PTPα assays), stopped, and colorimetrically analyzed as described above. As positive and negative controls, reactions were performed containing 10 ul DMSO with no inhibitor compound or containing the known PTPase inhibitors vanadate (final concentration 0.5 mM; for PTP-1B and CD45 assays) or ammonium molybdate (final concentration 1 mM; for PTP-1C and PTPα assays) substituted for the inhibitor compound of the invention.”

Compound | % inhibition of PTP1B at 1 μM [1] | % inhibition of PTPα at 100 μM [2] | % inhibition of PTP1C at 100 μM [3]
COc1ccc(C(=O)OC(C(=O)NCCCCCC(=O)O)c2ccc(/C=C/C(=O)O)cc2)cc1 (racemic) [Compound 43] | 76% | 82% | 79%
COc1ccc(C(=O)OC(C(=O)NCCC(=O)O)c2ccc(/C=C/C(=O)O)cc2)cc1 (racemic) [Compound 42] | 84% | 92% | 88%
O=C(O)/C=C/c1ccc(C(OC(=O)c2ccc([N+](=O)[O-])cc2)C(=O)NCCC(=O)O)cc1 (racemic) [Compound 44] | 79% | 87% | 86%
O=C(O)/C=C/c1ccc(C(OC(=O)/C=C/c2ccc(F)cc2)C(=O)NCCC(=O)O)cc1 (racemic) [Compound 45] | 85% | 85% | 84%
O=C(O)/C=C/c1ccc(C(OC(=O)CCC2CCCC2)C(=O)NCCCCCC(=O)O)cc1 (racemic) [Compound 50] | 50% | 37% | 25%
CCCCCCCCCC(OC(=O)c1ccc(/C=C/C(=O)O)cc1)C(=O)NCCCCCC(=O)O (racemic) [Compound 41] | 39% | 20% | 17%
CCCCCCC(OC(=O)c1ccc(/C=C/C(=O)O)cc1)C(=O)NCCCCCC(=O)O (racemic) [Compound 39] | 82% | 47% | 53%
CCCC(CCC)C(=O)OC(C(=O)NCCC(=O)O)c1ccc(/C=C/C(=O)O)cc1 (racemic) [Compound 47] | 68% | 48% | 63%
O=C(O)/C=C/c1ccc(C(=O)OC(C(=O)NCCCCCC(=O)O)c2ccc(Br)cc2)cc1 (racemic) [Compound 37] | 85% | 63% | 59%
CCCCCCCCCC(OC(=O)c1ccc(/C=C/C(=O)O)cc1)C(=O)NCCC(=O)O (racemic) [Compound 40] | 88% | 82% | 62%
